Experimental data from PMC4374761, “Pharmacokinetics and Metabolism of 4R-Cembranoid” (PLoS ONE, 2015).
Values joined by “and” are separate entries in the source; they are usually repeats but may differ in a detail not shown here. Equal entries are not always repeated. Where two headings read alike, the source gives them in different places.

What was measured:
[1] = 4R plasma stability in rat plasma; format: in vitro ADME; details: 10 μM 4R
Description: The samples were centrifuged at 18,000 x g for 10 min and the supernatants (100–250 μL) transferred to an HPLC vial containing 900 μl of 60% acetonitrile. The LC-MS/MS analysis was carried out using a high-performance liquid chromatography system consisting of a Shimadzu LC-20AD pump, (Shimadzu Scientific Instruments, Columbia, MA), and a CTC analytics PAL autosampler operating at 10°C (Leap technologies, Carrboro, NC). The MS instrument used was a 4000 QTrap triple quadrupole tandem mass spectrometer (Applied Biosystems/MDS Sciex, Foster City, CA). Electrospray ionization in positive ion mode (ESI+) was used. The detection of 4R was performed using the multiple reaction monitoring (MRM) mode. […] All samples were assayed in duplicate.

[2] = 4R plasma stability in human plasma; format: in vitro ADME; details: 10 μM 4R, 0-60 min at 37°C
Description: The samples were centrifuged at 18,000 x g for 10 min and the supernatants (100–250 μL) transferred to an HPLC vial containing 900 μl of 60% acetonitrile. The LC-MS/MS analysis was carried out using a high-performance liquid chromatography system consisting of a Shimadzu LC-20AD pump, (Shimadzu Scientific Instruments, Columbia, MA), and a CTC analytics PAL autosampler operating at 10°C (Leap technologies, Carrboro, NC). The MS instrument used was a 4000 QTrap triple quadrupole tandem mass spectrometer (Applied Biosystems/MDS Sciex, Foster City, CA). Electrospray ionization in positive ion mode (ESI+) was used. […] All samples were assayed in duplicate.

[3] = Metabolic stability / metabolite detection in human liver microsomes
Description: (§1) Pooled male and female human and rat liver microsomes were obtained commercially from BD Bioscience (San Jose, CA) and Xenotech (Lenexa, KS), respectively. […] Reactions were started by the addition of microsomes and stopped by removing 100 μL aliquots at each time point. […] As positive control, 10μM midazolam was incubated with microsomes for 0, 15, 30 and 60 min in a 37°C water bath and with heat-inactivated microsomes for 0 and 60 min. […] All assays were done in duplicates.
(§2) Reactions were stopped by removing 150 μL aliquots at 0, 5, 15, and 30 min and mixing with acetonitrile containing hexyl nicotinate as internal standard. […] Samples were analyzed in full-scan mode with MS/MS product-ion spectra generated for detected metabolite masses. This was performed using the EMS (enhanced MS scan) mode of the mass spectrometer with IDA (independent data acquisition) experiments to produce MS/MS product-ion spectra for masses detected at sufficient intensities. […] All assays were done in duplicate.

[4] = Metabolic stability / metabolite detection in rat liver microsomes
Description: as §1, §2

[5] = Plasma and brain 4R concentrations and pharmacokinetics in male rats; format: in vivo, Sprague-Dawley rat; details: for Kp at 1.5 h: brain and plasma, 90 min after dose, read-out: Ratio Cmax brain/ plasma; for Kp at 1.5 h / Cmax / Tmax / half-life: 6 mg/kg; for bioavailability: read-out: F (bioavailability)
Description: Twelve-week old male Sprague-Dawley rats weighing 307–373 g at the time of the experiment were used. […] The dosing volume of injection was 0.5 mL/kg for the i.m. and s.c. routes and 5 mL/kg for the i.v. route. […] Animal procedure for housing and care was performed according to the National Research Council (NRC) Guide for the Care and Use of Laboratory Animals and the Animal Welfare Standards incorporated in 9 Code of Federal Regulations Part 3, 1991. The animals had 12 hr light/dark cycles and at least 10 room volumes per hour with no recirculation of air. Purina certified rodent chow and water was provided ad libitum.
Blood samples were collected via a jugular vein catheter at each of the following time points: 2, 5, 10, 20, 45, 60, 90 min and 2, 4, 8 hr. […] The samples were vortexed, centrifuged and the supernatants removed. The supernatants were evaporated to dryness and reconstituted in a solvent mixture containing 50/50/0.1 acetronile/water/formic acid (v/v/v) with 10ng/mL hexyl nicotinate as internal standard. […] Rat brains were collected at 10, 60 or 90 min, and 8 hr post dose and frozen at -70°C. On the day of the analysis, the brains were homogenized in PBS using 4 parts phosphate buffer and 1 part brain (g/g). […] The lower limit of quantitation of the LC-MS/MS was 20.0 ng/ml for plasma and 100 ng/g for brain.
Parameters were calculated for each individual animal. The peak concentration in plasma (Cmax) and the corresponding time of maximum concentration (Tmax) were determined directly from the data. The area under the plasma concentration-time curve (AUC) from time 0–8 hr was calculated using the log/linear trapezoidal (i.v. route) or linear up/log down trapezoidal (i.m. and s.c routes) methods. The dose administered was input to the program as mg/kg, and as a result no additional corrections for individual body weights of the animals were necessary. The following parameters and constants were determined for the three groups: observed maximum plasma concentration (Cmax), time to maximum plasma concentration (Tmax), area under the plasma concentration-time curve to the last time point (AUClast), area under the plasma concentration-time curve extrapolated to infinity (AUCinf), terminal phase elimination half-life (t1/2). Bioavailability (F) after i.m. and s.c. administration was calculated using their respective AUCinf values divided by the AUCinf value of the i.v. group.

[6] = Solubility of 4R in dosing vehicle; format: physicochemical; details: 12 mg/mL in 10% DMSO and 90% PEG400, room temperature
Description: The solution was sterile filtered using a Millipore Millex-GS 0.22 μm syringe filter. Dose formulations were prepared on Day 1 prior to dose administration and were maintained at room temperature until administration to the animals.

[7] = 10 μM, 5 min, metabolite detection experiment
[8] = 10 μM, 15 min, metabolite detection experiment
[9] = 50 μM, 30 min, metabolite detection experiment
[10] = both, human, liver microsomes, pH 7.4
[11] = both, rat, liver microsomes, pH 7.4
[12] = male, Sprague-Dawley, rat, plasma, im, 6 mg/kg i.m.
[13] = male, Sprague-Dawley, rat, plasma, iv, 6 mg/kg i.v.
[14] = male, Sprague-Dawley, rat, plasma, sc, 6 mg/kg s.c.
[15] = 10 μM, heat-inactivated microsomes, 60 min

Compound: C/C1=C\[C@H](O)C[C@@](C)(O)/C=C/C(C(C)C)CC/C(C)=C/CC1 (stereo partly drawn) [4R, (1S, 2E, 4R, 6R, 7E, 11E)-cembra-2,7,11-triene-4,6-diol]
- mean percent 4R content versus control ([1]; 0-60 min at 37°C): 97–101%
- mean percent 4R content ([1]; 60 min at room temperature): 96%
- mean percent 4R content versus control [2]: 96–103%
- percent 4R remaining [3, 7]: 18%
- percent 4R remaining [3, 8]: less than 2%
- mean percent 4R remaining [3, 9]: ≤ 7.3%
- remaining at 5 min, 1 μM [3, 10]: 8%
- remaining at 5 min, 10 μM [3, 10]: 15%
- remaining at 0.25 h, 1 μM [3, 10]: 4%
- remaining at 0.25 h, 10 μM [3, 10]: < 2%
- percent 4R remaining [4, 7]: 34%
- percent 4R remaining [4, 8]: less than 2%
- mean percent 4R remaining [4, 9]: ≤ 7.3%
- remaining at 5 min, 1 μM [4, 11]: 19%
- remaining at 5 min, 10 μM [4, 11]: 29%
- remaining at 0.25 h, 1 μM [4, 11]: 4%
- remaining at 0.25 h, 10 μM [4, 11]: < 2%
- Brain Cmax ([5]; 6 mg/kg i.m.): 329 ng/g and 329 ± 50 ng/g
- time to maximum brain level ([5]; 6 mg/kg i.m.): 90 min
- plasma 4R level ([5]; 6 mg/kg i.m., by 8 hr post dose): below the LLOQ
- brain Cmax, times higher than s.c. or i.m. ([5]; 6 mg/kg i.v.): 20 times
- Brain Cmax ([5]; 6 mg/kg i.v., at 10 min): 6516 ng/g and 6516 ± 1091 ng/g
- time to reach the brain ([5]; 6 mg/kg i.v., post dose): ≤ 10 min
- Brain Cmax ([5]; 6 mg/kg s.c.): 323 ng/g and 323 ± 90 ng/g
- time to maximum brain level ([5]; 6 mg/kg s.c.): 90 min
- Brain Cmax ([5]; 6 mg/kg s.c. or i.m.): 300 to 400 ng/mL
- maximum mean 4R brain level ([5]; 6 mg/kg s.c., at 90 min): 323 ± 90
- plasma 4R level ([5]; 6 mg/kg s.c., by 8 hr post dose): below the LLOQ
- Kp at 1.5 h ([5]; male, Sprague-Dawley, rat, im, 6 mg/kg i.m.): 2.49
- Kp at 1.5 h ([5]; male, Sprague-Dawley, rat, sc, 6 mg/kg s.c.): 2.48
- concentration at 1 hr ([5]; male, Sprague-Dawley, rat, brain, intravenous, 6 mg/kg i.v., at 1 hr post dose): 3000 ± 771 ng/g
- AUC(0-inf) ([5]; male, Sprague-Dawley, rat, im, 6 mg/kg i.m., plasma): 395 ± 138 ng·h/mL
- AUC(0-inf) ([5]; male, Sprague-Dawley, rat, iv, 6 mg/kg i.v., plasma): 1140 ± 224 ng·h/mL
- Cmax [5, 12]: 163 ng/mL
- Tmax [5, 12]: ~1 h
- half-life ([5]; male, Sprague-Dawley, rat, plasma, im, 6 mg/kg i.m., male rats, read-out: t1/2 (converted)): ~1.5 h
- bioavailability ([5]; male, Sprague-Dawley, rat, plasma, intramuscular, 6 mg/kg i.m., AUCinf relative to i.v.): 35%
- concentration at 1 hr ([5]; male, Sprague-Dawley, rat, plasma, intramuscular, 6 mg/kg i.m., at 1 hr): 157 ± 86 ng/mL
- concentration at 5 min ([5]; male, Sprague-Dawley, rat, plasma, intravenous, 6 mg/kg i.v., at 5 min): 975 ± 104 ng/mL
- concentration at 8 hr ([5]; male, Sprague-Dawley, rat, plasma, intravenous, 6 mg/kg i.v., by 8 hr post dose): < 20 ng/mL
- Cmax [5, 13]: 1020 ± 49 ng/mL
- half-life ([5]; male, Sprague-Dawley, rat, plasma, iv, 6 mg/kg i.v., male rats, read-out: t1/2 (converted)): 0.6 ± 0.1 h
- half-life ([5]; male, Sprague-Dawley, rat, plasma, iv, 6 mg/kg i.v., read-out: elimination t1/2): 0.6 h
- bioavailability [5, 13]: 100%
- Cmax [5, 14]: 138 ± 28 ng/mL
- Tmax [5, 14]: 1 h
- half-life ([5]; male, Sprague-Dawley, rat, plasma, sc, 6 mg/kg s.c., male rats, read-out: t1/2 (converted)): ~1.5 h
- bioavailability ([5]; male, Sprague-Dawley, rat, plasma, subcutaneous, 6 mg/kg s.c., AUCinf relative to i.v.): 41%
- concentration at 1 hr ([5]; male, Sprague-Dawley, rat, plasma, subcutaneous, 6 mg/kg s.c., at 1 hr): 134 ± 34 ng/mL
- AUC(0-inf) ([5]; male, Sprague-Dawley, rat, sc, 6 mg/kg s.c., plasma): 466 ± 56 ng·h/mL
- appearance of 4R formulation (solubility) [6]: clear colorless solution

Compound: Cc1ncc2n1-c1ccc(Cl)cc1C(c1ccccc1F)=NC2 [MDZ, Midazolam, reference compound]
- percent remaining with heat-inactivated microsomes [3, 15]: 89%
- percent remaining with heat-inactivated microsomes [4, 15]: 108%
